Assay results: patent US20040053918A1, “Erythropoietin production potentiator” (KOWA CO., LTD., priority 2002, published 2004)

Experiments:
Assay type in all cases: cell-based
Hep3B cells [1] = assay: EPO produced by Hep3B cells under 21% O2, ELISA of culture supernatant
Description: (§1) Hep3B cells, which produce EPO at a low O2 partial pressure, were cultured in an amount of 1.5-3.0×10^6 cells/petri dish (100 mm) by use of Dulbecco's modified eagles' medium (DMEM)/10% fetal calf serum (FCS) (10 ml). The next day, the culture liquid of each petri dish was renewed, and a predetermined amount of compound 1 was added thereto, followed by culture for 24 hours at 37° C. under 1% O2 or 21% O2. EPO contained in the resultant culture supernatant was measured through ELISA. Separately, EPO potentiator activity was measured in the following manner. The luciferase-pXP2 (serving as a reporter gene) of a Hep3B wild-type gene was ligated with an enhancer and potentiator fragment (144 bp), to thereby produce a modified Hep3B wild-type gene as Pwt. Hep3B cells were cultured in an amount of 1×10^6 cells/petri dish (30 mm) by use of 4-mL DMEM/10% FCS, and the above modified wild-type (2 μg) and β-galactosidase gene (1 μg) (serving as an internal standard) were inserted into each of the cultured cells through the lipofectin method. […] After completion of culture, luciferase activity and β-galactosidase activity of the resultant cell extract were determined. EPO potentiator activity is represented by the following formula.

Hep3B cells [2] = assay: EPO produced by Hep3B cells under 1% O2, ELISA of culture supernatant
Description: as §1

[3] = system: EPO enhancer and potentiator fragment luciferase reporter in Hep3B cells; assay: EPO potentiator activity, luciferase reporter (Pwt) in Hep3B cells, hypoxic induction; details: control HI 52.2±10.7
Description: Hep3B cells, which produce EPO at a low O2 partial pressure, were cultured in an amount of 1.5-3.0×10^6 cells/petri dish (100 mm) by use of Dulbecco's modified eagles' medium (DMEM)/10% fetal calf serum (FCS) (10 ml). […] EPO contained in the resultant culture supernatant was measured through ELISA. Separately, EPO potentiator activity was measured in the following manner. The luciferase-pXP2 (serving as a reporter gene) of a Hep3B wild-type gene was ligated with an enhancer and potentiator fragment (144 bp), to thereby produce a modified Hep3B wild-type gene as Pwt. Hep3B cells were cultured in an amount of 1×10^6 cells/petri dish (30 mm) by use of 4-mL DMEM/10% FCS, and the above modified wild-type (2 μg) and β-galactosidase gene (1 μg) (serving as an internal standard) were inserted into each of the cultured cells through the lipofectin method. […] After completion of culture, luciferase activity and β-galactosidase activity of the resultant cell extract were determined. EPO potentiator activity is represented by the following formula.
HI (hypoxic induction)=(1% O2 luciferase/β-galactosidase)/(21% O2 luciferase/β-galactosidase)

For `COc1cc(C=CCCCN2CCCN(CCCC=Cc3cc(OC)c(OC)c(OC)c3)CC2)cc(OC)c1OC` [compound 1, N,N′-bis(5-(3,4,5-trimethoxyphenyl)-4-pentenyl)homopiperazine], the “amount of EPO” value (Hep3B cells [1]; 21% O2 (normal O2 partial pressure), 24 h, 10 μM compound 1, control 33.6±8.7) was 49.5±2.3 mU/protein μg, the “amount of EPO” value (Hep3B cells [1]; 21% O2, 24 h, 15 μM compound 1, control 33.6±8.7) was 56.4±2.2 mU/protein μg and the “amount of EPO” value (Hep3B cells [1]; 21% O2, 24 h, 30 μM compound 1, control 33.6±8.7) was 116.8±5.2 mU/protein μg. The “amount of EPO” value (Hep3B cells [2]; 1% O2 (low O2 partial pressure), 24 h, 10 μM compound 1, control 39.5±9.1) was 71.0±6.0 mU/protein μg, the “amount of EPO” value (Hep3B cells [2]; 1% O2, 24 h, 15 μM compound 1, control 39.5±9.1) was 76.0±13.5 mU/protein μg and the “amount of EPO” value (Hep3B cells [2]; 1% O2, 24 h, 30 μM compound 1, control 39.5±9.1) was 91.5±17.8 mU/protein μg. The “HI (hypoxic induction), EPO potentiator activity” value ([3]; 10 μM compound 1 alone) was 91.0±36.6 and the “HI (hypoxic induction), EPO potentiator activity” value ([3]; 10 μM compound 1 in the presence of 10^−3M L-NMMA) was 63.4±7.5.
